Source: patent US12678423B2, “Therapeutic agent for amyotrophic lateral sclerosis and composition for treatment” (KEIO UNIVERSITY, priority 2016, dated 2026)

Key:
Type in all cases: cell-based, human
[1] = test system: motor neurons induced to differentiate from iPS cells derived from ALS patients (TDP-43-ALS) having a mutation in TDP-43; assay: LDH leakage ratio, TDP-43-ALS motor neurons
Description: (§1) The leakage amount of LDH into the medium is an indicator of cytotoxicity. For measurement of the LDH leakage ratio, a commercially available kit (model “LDH Cytotoxicity Detection Kit”, Takara Bio Inc.) was used.
(§2) Here, ropinirole was added to the medium on days 35 to 40 from the start of the differentiation induction of each iPS cell. Here, it is assumed that days 35 to 40 from the start of differentiation induction correspond to the early stage of the ALS disease.
(§3) The improvement ratio (%) of the ALS phenotype was calculated by Equation (1).
(§4) [formula] [In Equation (1), A represents a measurement value of motor neurons induced to differentiate from iPS cells derived from ALS patients in the absence of ropinirole, and B represents a measurement value of motor neurons induced to differentiate from iPS cells derived from ALS patients in the presence of ropinirole, and C represents a measurement value of motor neurons induced to differentiate from iPS cells derived from healthy subjects in the absence of ropinirole.]
(§5) Subsequently, in the same manner as above, the efficacy in cases of administering lower concentrations of ropinirole was evaluated.
(§6) Each drug was added to the medium at a final concentration of 10 μM.

[2] = test system: motor neurons induced to differentiate from iPS cells derived from ALS patients (FUS-ALS) having a mutation in FUS; assay: LDH leakage ratio, FUS-ALS motor neurons
Description: as §1, §2, §3, §4, §5, §6

[3] = test system: motor neurons induced to differentiate from iPS cells derived from SALS patients; assay: LDH leakage ratio, sporadic ALS model (Example III-3); settings: final concentration 1 μM, days 35 to 40, measured on day 40, FIG. 12
Excerpt: (§7) In the same manner as in Example I-1, iPS cells derived from sporadic ALS (may be referred to below as “SALS”) patients were differentiated into motor neurons. All the iPS cells used were derived from dermal fibroblasts. Below, each differentiated motor neuron is identified by the patient number from whom the neuron was derived.
(§8) In the same manner as in Example II-1, iPS cells derived from sporadic ALS (SALS) patients were induced to differentiate into motor neurons, and then ropinirole with a final concentration of 1 μM was added to the medium. More specifically, for the period of days 35 to 40 from the start of differentiation induction, ropinirole having a final concentration of 1 μM was added to the medium. In addition, a group for which ropinirole was not added to the medium was prepared as a control. In addition, for comparison, iPS cells derived from healthy subjects were differentiated into motor neurons in the same manner as in Example I-1. No ropinirole was added to the medium of these motor neurons. As the iPS cells derived from a healthy subject, the same cells as used in Example I-1 were used.
Subsequently, on day 40 from the start of differentiation induction, the LDH leakage ratio was measured for each motor neuron in the same manner as in Example I-4.
FIG. 12 is a graph showing the measurement result of the LDH leakage ratio. […]

[4] = test system: motor neurons induced to differentiate from iPS cells derived from ALS patients (FUS-ALS) having a mutation in FUS; assay: Neurite length, FUS-ALS motor neurons (screening, Example I-8)
Description: For each differentiation-induced motor neuron in Example I-1, the changes over time in the neurite length were measured. A Bio station CT (Nikon Corp.) was used to measure the neurite length over time. FIG. 1 is a graph showing measurement results of changes over time in the neurite length. The vertical axis represents neurite length (relative value), and the horizontal axis represents the number of days of culturing from the start of differentiation induction.
(§9) Using the differentiation-induced motor neurons in Example I-1, drugs which cause the ALS phenotype to be restored were screened from existing drug libraries with the neurite length, ectopic localization of FUS protein, stress granule formation, LDH leakage ratio, CV-caspase 3-positive ratio, phosphorylated TDP-43 protein inclusion formation, and the like as indices.
(§10) As a result of the screening, ropinirole was found as a promising therapeutic agent for ALS. Tables 5 and 6 show the improvement ratio (%) in the ALS phenotype due to adding ropinirole to the medium. Here, ropinirole was added to the medium on days 35 to 40 from the start of the differentiation induction of each iPS cell. Here, it is assumed that days 35 to 40 from the start of differentiation induction correspond to the early stage of the ALS disease.
as §3, §4, §5, §6

[5] = test system: motor neurons induced to differentiate from iPS cells derived from SALS patients; assay: Stress granules, sporadic ALS model (Example III-4); settings: final concentration 1 μM, days 35 to 40, measured on day 40, FIG. 13
Excerpt: as §7
as §8, with “and” for “and then”
Subsequently, on day 40 from the start of differentiation induction, the number of stress granules was measured for each motor neuron in the same manner as in Example I-7.
FIG. 13 is a graph showing the measurement result of the number of stress granules. […]

[6] = test system: motor neurons induced to differentiate from iPS cells derived from ALS patients (FUS-ALS) having a mutation in FUS; assay: Ectopic localization of FUS protein in the cytoplasm, FUS-ALS motor neurons
Excerpt: Therefore, on day 40 from the start of differentiation induction, each differentiation-induced motor neuron in Example I-1 was immunostained and the localization of FUS protein in the cytoplasm was examined.
as §9, §10, §3, §4, §5, §6

[7] = final concentration 0.1 μM, added days 35 to 40
[8] = final concentration 1 μM, added days 35 to 40
[9] = final concentration 10 μM, added days 35 to 40

CCCN(CCC)CCc1cccc2c1CC(=O)N2 [Ropinirole, 4-(2-di-n-propylaminoethyl)-2(3H)-indole]
LDH leakage ratio improvement ratio ([1]; final concentration 0.1 nM): 10.2% | LDH leakage ratio improvement ratio ([1]; final concentration 1 nM): 55.2% | LDH leakage ratio improvement ratio ([1]; final concentration 10 nM): 56.6% | LDH leakage ratio improvement ratio [1, 7]: 58.3% | LDH leakage ratio improvement ratio [1, 8]: 78.1% | LDH leakage ratio improvement ratio [1, 9]: 82.4% | LDH leakage ratio improvement ratio ([2]; final concentration 0.1 nM): 10.1% | LDH leakage ratio improvement ratio ([2]; final concentration 1 nM): 31.1% | LDH leakage ratio improvement ratio ([2]; final concentration 10 nM): 39.4% | LDH leakage ratio improvement ratio [2, 7]: 33.5% | LDH leakage ratio improvement ratio [2, 8]: 48.0% | LDH leakage ratio improvement ratio [2, 9]: 47.6% | LDH leakage ratio [3]: significantly decreased | Neurite length improvement ratio ([4]; final concentration 0.1 nM): 3.22% | Neurite length improvement ratio ([4]; final concentration 1 nM): 32.3% | Neurite length improvement ratio ([4]; final concentration 10 nM): 45.8% | Neurite length improvement ratio ([4]; final concentration 0.1 μM, added days 35 to 40 from start of differentiation induction): 43.3% | Neurite length improvement ratio [4, 8]: 58.3% | Neurite length improvement ratio [4, 9]: 61.3% | Number of stress granules [5]: significantly decreased | Ectopic localization of FUS protein improvement ratio ([6]; final concentration 0.1 nM): 20.2% | Ectopic localization of FUS protein improvement ratio ([6]; final concentration 1 nM): 45.8% | Ectopic localization of FUS protein improvement ratio ([6]; final concentration 10 nM): 51.2% | Ectopic localization of FUS protein improvement ratio [6, 7]: 55.8% | Ectopic localization of FUS protein improvement ratio [6, 8]: 54.3% | Ectopic localization of FUS protein improvement ratio [6, 9]: 74.4%
